Measured values taken from the NIST ThermoML archive (doi:10.1016/j.fluid.2014.06.021).
± gives the expanded uncertainty stated by the source.

Experiments:
[1] = 101.33 kPa, Liquid, Vibrating tube method
[2] = activity coefficient (dimensionless); of the first substance listed, at infinite dilution; xn = mol fraction of the nth substance listed; conditions: 101.33 kPa, Liquid, Chromatography, x1 = 0

SMILES	mass density ([1]; 298.15 K) [kg/m3]	mass density ([1]; 299.45 K) [kg/m3]	mass density ([1]; 300.75 K) [kg/m3]	mass density ([1]; 302.15 K) [kg/m3]	mass density ([1]; 303.45 K) [kg/m3]	mass density ([1]; 304.75 K) [kg/m3]	mass density ([1]; 305.85 K) [kg/m3]	mass density ([1]; 307.15 K) [kg/m3]	mass density ([1]; 308.65 K) [kg/m3]	mass density ([1]; 310.35 K) [kg/m3]	mass density ([1]; 311.75 K) [kg/m3]	mass density ([1]; 313.05 K) [kg/m3]	mass density ([1]; 314.45 K) [kg/m3]	mass density ([1]; 315.85 K) [kg/m3]	mass density ([1]; 317.25 K) [kg/m3]	mass density ([1]; 318.75 K) [kg/m3]	mass density ([1]; 320.05 K) [kg/m3]	mass density ([1]; 321.45 K) [kg/m3]	mass density ([1]; 322.85 K) [kg/m3]	mass density ([1]; 324.65 K) [kg/m3]	also measured
C[n+]1ccn(CCCCS(=O)(=O)O)c1.O=S(=O)([O-])C(F)(F)F	1478.4 ± 2	1478 ± 2	1477 ± 2	1476.1 ± 2	1475.3 ± 2	1474.7 ± 2	1473.8 ± 2	1472.8 ± 2	1472 ± 2	1470.9 ± 2	1470.1 ± 2	1469.3 ± 2	1468.2 ± 2	1467.3 ± 2	1466.3 ± 2	1465.6 ± 2	1464.8 ± 2	1463.7 ± 2	1462.7 ± 1.9	1461.5 ± 1.9	mass density ([1]; 326.65 K): 1461.3 ± 1.9 kg/m3; mass density ([1]; 328.45 K): 1460.2 ± 1.9 kg/m3; mass density ([1]; 338.55 K): 1453.7 ± 1.9 kg/m3; mass density ([1]; 343.5 K): 1450.6 ± 1.9 kg/m3
C[n+]1ccn(CCCCS(=O)(=O)O)c1.O=S(=O)([O-])O [1-methyl-3-(4-sulfobutyl)-imidazolium hydrogensulfate]	1437.7 ± 1.9	1436.9 ± 1.9	1436.3 ± 1.9	1435.4 ± 1.9	1434.8 ± 1.9	1434 ± 2	1433.3 ± 1.9	1432.4 ± 1.9	1431.7 ± 1.9	1430.8 ± 1.9	1430 ± 2	1429.3 ± 1.9	1428.5 ± 1.9	1427.8 ± 1.9	1426.9 ± 1.8	1426.4 ± 1.8	1425.8 ± 1.8	1424.7 ± 1.8	1423.9 ± 1.8	1423.2 ± 1.8	mass density ([1]; 326.65 K): 1422.1 ± 1.8 kg/m3; mass density ([1]; 328.45 K): 1421.2 ± 1.8 kg/m3; mass density ([1]; 338.55 K): 1414.5 ± 1.8 kg/m3; mass density ([1]; 343.5 K): 1411.7 ± 1.8 kg/m3
c1ccsc1 [thiophene] + C[n+]1ccn(CCCCS(=O)(=O)O)c1.O=S(=O)([O-])O																					activity coefficient ([2]; 323.15 K): 6.56 ± 0.45; activity coefficient ([2]; 333.15 K): 6.43 ± 0.44; activity coefficient ([2]; 343.15 K): 6.13 ± 0.42
C[n+]1ccn(CCCCS(=O)(=O)O)c1.O=S(=O)([N-]S(=O)(=O)C(F)(F)F)C(F)(F)F	1577 ± 2	1575.8 ± 2.3	1574.9 ± 2.3	1573.7 ± 2.3	1572.7 ± 2.3	1571.5 ± 2.3	1570.5 ± 2.3	1569.2 ± 2.3	1568 ± 2	1566.7 ± 2.2	1565.5 ± 2.2	1564.3 ± 2.2	1563.2 ± 2.2	1562 ± 2	1560.9 ± 2.2	1559.8 ± 2.2	1558.8 ± 2.2	1557.7 ± 2.2	1556.4 ± 2.2	1554.8 ± 2.2	mass density ([1]; 326.65 K): 1553.4 ± 2.2 kg/m3; mass density ([1]; 328.45 K): 1551.8 ± 2.2 kg/m3; mass density ([1]; 338.55 K): 1543.9 ± 2.2 kg/m3; mass density ([1]; 343.5 K): 1539.7 ± 2.2 kg/m3
